Laboratory results: patent US10392363B2, “Methods for treating protozoan infections” (Neoculi Pty Ltd., priority 2014, dated 2019)
“And” between values parts separate entries of the source, which are not always exact repeats. Identical values can stand only once.

Assays:
[1] = system: Leishmania donovani promastigotes; assay: L. donovani screening (Alamarblue); format: cell-based; settings: for L. donovani SI: GI50 of macrophages divided by IC50 of parasites; for inhibition at 10 µM: 96 hrs, read-out: reduction of metabolic activity / inhibition of L. donovani
Procedure: L. donovani Screening. Procyclic promastigotes from exponentially growing cultures maintained in DME-L+ Bob additions were used for all assays. Compounds were initially screened for activity at 10 μM. Compounds were diluted in culture media to a […] in 96 well plates. Promastigotes were diluted to a density of ˜8×10^5 cells/ml then added to the assay plate resulting in a final cell density of 4×10^5 cells/ml. in 96 well plates. Cells were incubated for 96 hrs at 27° C. before the addition of Alamarblue (thermofisher). Fluorescence was read at excitation 530 nm and Emission 590 nm. […] Compounds were serially diluted in thirds, in a 96 well plate, in cell growth media so that concentrations ranged from 0.005 to 10 μM and promastigotes added to a final concentration of 1×10^6 cells/ml. Cells were incubated at 27° C. for 72 hours before the addition of alamar blue. Fluorescence was measured as above.

[2] = Cell toxicity assay (WST-1); format: cell-based, mouse; settings: mouse, RAW 264.7 macrophages, RAW 264.7, 24 hours, read-out: GI50 macrophage
Procedure: Cell toxicity assays. Mouse macrophages (RAW 264.7) were grown in RPM11640 media supplemented with L-glutamine and 10% foetal calf serum. Cells were trypsanised when 80% confluent and subcultured every 3-4 days. For cytotoxicity assays cells were diluted to a final cell concentration of 2×10^4 cells/ml and 198 μl added to each well of a 96 well plate. Cells were incubated in a humidified incubator for 2 hours at 37° C. 5% CO2 before the addition of NCL compounds (2 μl/well, previously diluted in DMSO). Campothecin, triton X and DMSO only were used as controls. Cells were exposed to the compounds for 24 hours. The metabolic activity of the cells was determined using the WST-1 assay system (Roche Life Science). The supernatant was removed, 100 μl of PBS with 10% WST-1 was added to each well and incubated for 1 hr before reading absorbance at 450 nm. The selectivity index of the compounds was determined by dividing the IC50 of macrophages by the IC50 against parasites. IC50 was determined via graphpad prism software.

[3] = Microsomal stability, human; format: in vitro ADME; settings: human liver microsomes
Procedure: (§1) Incubation methods: The metabolic stability assay was performed by incubating each test compound (at 1 μM) with human and mouse liver microsomes (Xenotech, Lot#1210057 and 1310211, respectively) at 37° C. and 0.4 mg/mL protein concentration. The metabolic reaction was initiated by the addition of an NADPH-regenerating system (i.e. NADPH is the cofactor required for CYP450-mediated metabolism) and quenched at various time points over a 60 minute incubation period by the addition of acetonitrile containing diazepam as internal standard. Control samples (containing no NADPH) were included (and quenched at 2, 30 and 60 minutes) to monitor for potential degradation in the absence of cofactor. Analytical conditions: Instrument: Waters Micromass Xevo G2 QTOF coupled to a Waters Acquity UPLC; Detection: Positive electrospray ionisation under MSE mode; Cone Voltage 30 V; Column: Ascentis Express Amide column (50×2.1 mm, 2.7 μm); LC conditions: Gradient cycle time: 4 minutes; Injection volume: 5 μL; Flow rate: 0.4 mL/min; Mobile phase: Acetonitrile-water gradient with 0.05% formic acid Metabolite; Identification: A metabolite screen was not included in this study, however, since data was acquired using MSE mode, which allows for the simultaneous acquisition of low and high collision energy MS spectra, a post-hoc metabolite search may be conducted at a later date if warranted. […]

[4] = Microsomal stability, mouse; format: in vitro ADME; settings: mouse liver microsomes
Procedure: as §1

[5] = system: Trypanosoma cruzi (Tulahuen trypomastigotes expressing β-galactosidase, in L6 cells); assay: In vitro T. cruzi assay for determination of IC50; format: cell-based; settings: Trypanosoma cruzi, TULAHUEN, L6; 96 h incubation
Procedure: The T. cruzi assay uses Tulahuen trypomastigotes expressing the β-galactosidase gene. The parasites were maintained in vitro by serial passage in L6 cells. […] Extracellular trypomastigotes were then removed and NCL compounds were added in seven-point serial dilutions performed in triplicate. Benznidazole (Epichem Pty Ltd.) was included as a control. […] After 4-6 h, a colour change following catabolisation of the reagent by viable T. cruzi was observed and absorbance was read at 530 nm using a Dynex microplate reader. […] For each compound, % inhibition values were used to generate a standard curve from which the IC50 was calculated. Each assay was performed at least twice, and the average was used.

[6] = system: Giardia duodenalis (strain WB trophozoites); assay: Giardia adherence assay; format: cell-based; settings: NCL099 at 11, 38 and 128 μg/ml compared to the control
Procedure: Giardia strain WB was grown until confluent (grown and maintained in TYI-S-33 medium with 10% foetal bovine serum). For the assay, media of a confluent culture was replaced with fresh TYI-S-33 medium. Cultures were then cold shocked (on ice) for 40 minutes to detach trophozoites. The cell density of the cultures was adjusted to 1×10^6 cells/ml and 1 ml was added to each well of a 24 well plate already containing 1 ml of diluted compounds (see below). […] After incubation the coverslips were removed, air-dried and stained with Diff-Quik (a Romanowski stain variant). Coverslips were mounted onto glass slides using polymount. Images at 10× magnification were taken at 5 random locations per coverslip. […] Stock solutions of compounds were prepared in DMSO at 25.6 mg/ml. Compounds were diluted 1:100 in TYI-S-33 medium. A 1:2 serial dilution was then performed in TYI-S-33 medium in 24 well plates.

sheep erythrocytes = assay: Erythrocyte haemolysis assay; format: cell-based; settings: compared to NCL812 and NCL062
Procedure: Whole sheep blood was obtained from Thermofisher scientific. The red blood cells were separated from other blood components via centrifugation at 1500 g for 10 minutes and washed with saline 3 times. Erythrocytes were diluted to a concentration of ˜1×10^10 cells/ml in saline. 50 μl of NCL compounds diluted in DMSO (see below) were added to 1.5 ml Eppendorf tubes and 500 μl of diluted red blood cells were added to each tube. Erythrocytes were incubated with compounds for 30 minutes at 37° C. with gentle shaking (75 rpm). After incubation cells were placed on ice for 5 minutes then centrifuged at 1500 rpm for 10 minutes to pellet cells. The supernatant was removed and serially diluted in saline. Absorbance of the supernatant and dilutions were recorded at 550 nm. Sample lysis was compared relative to cells lysed 100% in distilled water and analysed using GraphPad Prism v6 software.

[7] = Release from Formulation B (Franz diffusion cells); format: physicochemical; settings: absolute ethanol receptor, 32° C., up to 24 hours
Procedure: Franz diffusion cells were utilized to quantify the release rate of NCL 812 and NCL099 from its topical formulations. Five milliliters of absolute ethanol, which was chosen as the desired release medium, was loaded into the receptor chamber. Temperature of the receptor fluid was kept constant, at 32±1° C. using a water jacket. Acetyl cellulose membranes, with pore size of 0.45 μm (Pall Corporation) was selected and placed between donor and receptor chamber. Followed by that, a number of test samples (Formulation B) was loaded into the donor chamber. One milliliter of receptor fluid was collected at regular time intervals of 0.25, 0.50, 0.75, 1, 2, 3, 4, 5, 6, 7, 8 and 24 hours through the sampling port. One milliliter of fresh absolute ethanol was immediately returned to the receptor chamber. UV-HPLC was utilized to analyse the content of the receptor fluids attained.

T. cruzi infection = settings: cited from earlier work
[8] = system: Giardia WB (Giardia duodenalis); assay: Resazurin Reduction Assay (Example 9); format: cell-based
Procedure: Giardia trophozoites were grown until confluent. The media was replaced with fresh media and cold shocked for 40 minutes. Compounds were prepared in DMSO and serially diluted 2-fold in DMSO starting at with a 1/100 dilution of the stock (e.g. 128 mg/ml stock starting dilution would be […]). 2 μl of dilutions were added to the appropriate wells and 198 ul of TYI-S-33 media added to each well. Cells were diluted to a concentration of ˜500 000 cells/ml and 100 μl were added to each well of the assay plate (except media only control). The assay was incubated in an anaerobic environment (candle jar) for 5 hours at 37° C. The media was removed and replaced with 100 μl of warm PBS then Alamarblue™ added to a concentration of 10%. The samples were incubated in an anaerobic environment until colour development. After incubation, the absorbance of each sample was read at 570 and 630 nm. The percent reduction of resazurin (Alamarblue™) was calculated (using the formula below) and data was analysed with GraphPad Prism v6 software. The formula used to calculate percent reduction of Alamarblue was ((Eoxi630×A570)−(Eoxi570×A630))/((Ered570×C630)−(Ered×C570))×100, Where: Eoxi630=34798, Eoxi570=80586, A570=absorbance at 570 nm, A630=absorbance at 630 nm, Ered570=155677, Ered630=5494, C630=absorbance of negative control well at 630 nm and C570=absorbance of negative control well at 570 nm.

S. aureus ATCC 29213 = assay: S. aureus MIC; format: cell-based; settings: MIC after 24 hours

Question: For `COc1ccccc1/C=N/NC(=N)N/N=C/c1ccccc1OC.Cl` [NCL028], which IC50 ([1]; 72 hours) is on record?
Answer: Its IC50 is 0.29 ± 0.05 µM.

Question: What about the “L. donovani SI” value [1] of the same compound?
Answer: The value was “highly selective”.

Question: What about the “L. donovani SI” value ([1]; listed as NCL 028) of the same compound?
Answer: The value was 27.9.

Question: And the IC50 ([1]; Leishmania donovani, 72 h)?
Answer: The IC50 was 0.37 µM.

Question: And the inhibition at 10 µM ([1]; Leishmania donovani)?
Answer: The inhibition at 10 µM was 100%.

Question: And the GI50 at 24 h [2]?
Answer: Its GI50 at 24 h is 8.1 ± 2.76 µM.

Question: And the rate of degradation [3]?
Answer: Its rate of degradation is “low (low (<0.3))”.

Question: What about the rate of degradation [4] of the same compound?
Answer: Its rate of degradation is “high (high (0.7-0.95))”.

Question: What about the IC50 [5] of the same compound?
Answer: The IC50 was 13 µM.

Question: For `CC(C)(C)c1ccc(/C=N/NC(=N)N/N=C/c2ccc(C(C)(C)C)cc2)cc1.Cl` [NCL099], which “number of adherent cells” value [6] is on record?
Answer: The value was “significant decrease”.

Question: And the “selectivity for bacterial and protozoal cells than mammalian cells” value (sheep erythrocytes)?
Answer: Its value is “greater selectivity”.

Question: What about the “release profile from Formulation B” value [7] of the same compound?
Answer: The value was “acceptable release profile”.

Question: And the IC50 ([1]; Leishmania donovani, 72 h)?
Answer: The IC50 was 0.37 ± 0.04 µM.

Question: What about the inhibition at 10 µM ([1]; Leishmania donovani) of the same compound?
Answer: The inhibition at 10 µM was 100%.

Question: And the GI50 at 24 h [2]?
Answer: Its GI50 at 24 h is 7.66 ± 0.56 µM.

Question: Which cure rate (T. cruzi infection; children with chronic T. cruzi infection, negative serology 3 to 4 years after treatment) does the source give for `O=C(Cn1ccnc1[N+](=O)[O-])NCc1ccccc1` [benznidazole] here?
Answer: Its cure rate is “around 60%”.

Question: What does the source list for `C/C(=N\NC(=N)N/N=C(\C)c1ccc(C(C)(C)C)cc1)c1ccc(C(C)(C)C)cc1.Cl` [NCL219]?
Answer: IC50 ([8]; Giardia, 5 h): 1.03 µM and 0.4 µg/mL; MIC (S. aureus ATCC 29213; Staphylococcus aureus, ATCC29213): > 100 µg/mL; L. donovani SI [1]: highly selective; L. donovani SI ([1]; listed as NCL 219): 24.08; IC50 ([1]; Leishmania donovani, 72 h): 0.8 ± 0.1 µM; inhibition at 10 µM ([1]; Leishmania donovani): 100%; GI50 at 24 h [2]: 19.3 ± 3.77 µM

Question: With `CC1CS(=O)(=O)CCN1/N=C/c1ccc([N+](=O)[O-])o1` (centres unmarked) [nifurtimox] as the compound, how does the “patients with gastrointestinal side effects” value (T. cruzi infection; anorexia, weight loss, nausea, vomiting) read?
Answer: The value was “up to 70%”.

Question: Which “Giardia WB IC50” value ([8]; IC50 after 5 hours) does the source give for `NC(N)=N/N=C(\CC1CCCCC1)c1ccc(Cl)cc1O` [NCL237] here?
Answer: Its value is 22.8^ ug/ml.

Question: And the “S. aureus ATCC 29213 MIC” value (S. aureus ATCC 29213)?
Answer: Its value is 4.8 µg/mL.
